Source: the SangsterLogP compilation

How the values were obtained:
[1] = method code SF, from DOI: 10.1016/0006-2952(91)90449-f, PMID: 1930261; settings: pH 2.0
[2] = method code SF-AS, from DOI: 10.1016/0378-5173(93)90388-v
[3] = method code SF-HPLC, from DOI: 10.1016/0378-5173(84)90193-5; settings: pH 4.0
[4] = not given; remark: listed apart in the source
[5] = method code SF, from Dai, J-Y.; Han, S.; Wang, L. (2000). Prediction of partition properties of substituted benzaldehydes using different structural parameters. Zhongguo Huanjing Kexue (China Environmental Science), …
[6] = not given; remark: listed apart in the source
[7] = not given; remark: listed apart in the source
[8] = method code SF-AS, from DOI: 10.1016/j.bmc.2008.07.057, PMID: 18706818; settings: pH 7.4
[9] = method code SF-GLC, from DOI: 10.1002/etc.5620080910
[10] = method code SF, from DOI: 10.1016/s0928-0987(00)00099-3, PMID: 10915965; settings: pH 5.0
[11] = method code SF, from Huang, Q.; Wang, L.; Han, S.; Wang, G.; Gao, H. (1993). Quantitative relation between molecular structures and the hydrophobic parameters of halogenated arenes. Chemical Journal of Chinese …
[12] = method code SF-AS, from DOI: 10.1248/cpb.17.2558
[13] = not given; remark: listed apart in the source
[14] = method code SF-AS, from DOI: 10.1002/etc.5620181211
[15] = method code SF-RC, from DOI: 10.1016/s0969-8051(01)00233-5, PMID: 11518650
[16] = not given; remark: listed apart in the source
[17] = not given; remark: listed apart in the source
[18] = method code SF-AS, from DOI: 10.1016/0731-7085(96)01773-6, PMID: 8877846
[19] = not given; remark: listed apart in the source
[20] = method code SF-GLC, from DOI: 10.1016/0166-445x(88)90052-5
[21] = not given; remark: listed apart in the source
[22] = not given; remark: listed apart in the source
[23] = method code SF-AS, from DOI: 10.1016/s0021-9673(01)89384-5
[24] = not given; remark: listed apart in the source
[25] = method code SF-TN, from DOI: 10.2116/analsci.13.897; settings: pH 2.0
[26] = not given; remark: listed apart in the source
[27] = method code SF-GLC, from DOI: 10.1016/s0003-2670(00)84505-5
[28] = method code SF-HPLC, from DOI: 10.1016/j.microc.2003.08.005
[29] = method code SF-AS, from DOI: 10.1111/j.2042-7158.1989.tb06480.x, PMID: 2570831; settings: pH 7.4
[30] = method code SF-AS, from DOI: 10.1248/cpb.40.925
[31] = not given; remark: listed apart in the source
[32] = not given; remark: listed apart in the source
[33] = from KURIHARA, Norio.; Fujita, Toshio. (1983). Composition of Partition Coefficients of Polychlorinated Hydrocarbons (Commemoration Issue Dedicated to Professor Yuzo Inouye on the Occasion of his …
[34] = method code SF, from DOI: 10.1016/0165-1218(78)90089-7, PMID: 362190
[35] = from Wang, L.; Xu, L.; Xu, O.; Tian, L.; Zheng, Z. (1989). Simultaneous determination of partition coefficients and acid dissociation constants of some organic dibasic acids and diacidic bases in the …
[36] = pH 7.3
[37] = not given; remark: listed apart in the source
[38] = not given; remark: listed apart in the source
[39] = method code SF-AS, from Lee, B.; Shin, J.; Lim, M.; Jang, T.; Park, J.; Kim, K.; Kang, W. (1997). Partition Property of 5-Nitrothiopyrimidine Nucleoside. Bull Korean Chem Soc, 18(7)734-736.; settings: pH 7.0
[40] = method code SF-AS, from DOI: 10.1016/0378-5173(80)90061-7
[41] = method code SF, from DOI: 10.2307/3575246, PMID: 7367588
[42] = method code SF-AS, from DOI: 10.1016/0041-008x(67)90079-8
[43] = not given; remark: listed apart in the source

With `CN1C(=O)C(=O)C(=O)N(C)C1=O` the logD [1] was -0.57.
For `CCN1CCCC1=O`, the logP [2] was -0.04.
`CCCC(=O)n1c(=O)[nH]cc(F)c1=O` gave a logD [3] of 0.67.
In the case of `COc1cc(NCc2ccc3nc(N)nc(N)c3c2C)cc(OC)c1OC`, the logD (pH 13.0) is reported as 2.55.
With `Clc1ccncc1` the logP [4] was 1.37.
For `Cc1ccc(C)c(C=O)c1`, the logP [5] was 1.91.
Compound `On1ccccc1=S` has a logP [6] of 0.4.
For `ClC1C(Cl)C(Cl)C(Cl)C(Cl)C1Cl` (stereo unspecified), the logP [7] was 3.67.
Work on `CCC1(C(N)=O)CCC=[N+]1[O-]` (stereo unspecified) yielded a logD [8] of -1.25.
Compound `O=[N+]([O-])c1cc(Cl)c(Cl)c(Cl)c1Cl` has a logP [9] of 3.93.
Work on `COP(=O)(OC)C(C)(OC(C)=O)P(=O)(OC)OC` yielded a logD [10] of -1.05.
`O=c1[nH]cnc2nc[nH]c12` showed a logP of -0.96.
Compound `Brc1ccccc1Br` has a logP [11] of 4.07.
With `CNc1ccc(S(N)(=O)=O)cc1` the logD ([12]; pH 5.5) was 0.08.
`c1ccc(Oc2ccccc2)cc1` showed a logP [7] of 3.87.
In the case of `CCCC(CO)N1C=NC2C(N)=NC=NC21` (stereo unspecified), the logP [13] is reported as 0.66.
In the case of `Nc1cccnc1Cl`, the logP [14] is reported as 0.04.
Work on `CCN(CC)CCF` yielded a logP [15] of 0.94.
In the case of `C=CCCCCCC`, the logP [16] is reported as 4.72.
With `CC1CCC(=O)N1C` (stereo unspecified) the logP [2] was -0.07.
Work on `CCCCC(C)=O` yielded a logP [17] of 1.39.
`O=C(O)c1ccccn1` gave a logP [6] of -1.
For `O=C1O[C@H]([C@@H](O)CO)C(O)=C1O`, the logP [18] was -1.84.
In the case of `COP(=O)(OC)C(C)(O)P(=O)(OC)OC`, the logD [10] is reported as -1.39.
With `CCCCOC(C)=O` the logP [19] was 1.69.
`C1OC1C1CO1` (stereo unspecified) showed a logP [20] of -0.28.
In the case of `O=[N+]([O-])c1ccccc1`, the logP [21] is reported as 1.86.
For `Nc1cccc(Cl)c1Cl`, the logP [22] was 2.51.
`Cc1ccc(C)o1` showed a logP [23] of 2.24.
In the case of `CCCCOCC`, the logP [13] is reported as 2.03.
Compound `CCN(CC)C(=O)SCc1ccc(Cl)cc1` has a logP [24] of 3.78.
For `O=C(O)C1CC=CCC1` (stereo unspecified), the logD [25] was 1.69.
With `C1CCCCCCC1` the logP [26] was 3.28.
`Oc1c(Cl)cc(Cl)c(Cl)c1Cl` gave a logP [27] of 4.3.
In the case of `CCCCC1CO1` (stereo unspecified), the logP [20] is reported as 1.95.
For `Cc1ccc2[nH]nnc2c1`, the logP [28] was 1.89.
In the case of `C(=C\c1ccccn1)/c1ccccc1`, the logP [14] is reported as 1.96.
In the case of `Cn1cnc2c(N)ncnc21`, the logD [29] is reported as -0.03.
Work on `O=[N+]([O-])c1c(Cl)cc(Cl)cc1Cl` yielded a logP [9] of 3.69.
With `Cn1cccc1` the logP [30] was 1.15.
In the case of `Nc1cc(Cl)ccc1Cl`, the logP [22] is reported as 2.62.
Compound `Oc1cccc(F)c1` has a logP [31] of 1.82.
For `Cc1cccc(C)n1`, the logP [17] was 1.63.
With `CCCC=CC(=O)O` the logD [25] was 1.69.
Work on `Nc1ccc([N+](=O)[O-])cn1` yielded a logP [32] of 0.65.
Work on `CN1C(=O)NC(=O)C(=O)C1=O` yielded a logD [1] of -1.04.
Work on `Nc1c([N+](=O)[O-])ccc2ncccc12` yielded a logP [32] of 1.61.
Work on `CC(=O)n1c(=O)[nH]cc(F)c1=O` yielded a logD [3] of -0.34.
In the case of `Cl[C@@H]1CCCC[C@@H]1Cl`, the logP [33] is reported as 3.18.
Compound `C#CCN(C)C(C)Cc1ccc(F)cc1` (stereo unspecified) has a logP [18] of 3.
In the case of `O=[N+]([O-])c1nccn1CC(O)CCl` (stereo unspecified), the logP [34] is reported as 0.15.
`O=C(O)CCC(=O)O` showed a logP [35] of -0.61.
`CN(C)CCF` gave a logP [15] of 0.36.
In the case of `Oc1cc(Cl)ccc1Cl`, the logP [31] is reported as 3.06.
`Cn1cccc(O)c1=O` showed a logD [36] of -0.4.
`NS(=O)(=O)c1ccc(Cl)c(Cl)c1` showed a logD ([12]; pH 2.0) of 1.44.
`O=c1cc(CO)occ1O` showed a logD [36] of -0.64.
Compound `Oc1ccc(Cl)cc1` has a logP [37] of 2.43.
Work on `Cc1cc(O)no1` yielded a logP [24] of 0.26.
With `Nc1cccc(C(=O)O)c1` the logP [35] was 0.65.
`C1CCCC1` showed a logP [38] of 2.8.
Compound `O=c1[nH]cc([N+](=O)[O-])c(=O)[nH]1` has a logD [39] of -1.38.
In the case of `CCC(C)CC`, the logP [26] is reported as 2.8.
Work on `COC(=O)CCCO` yielded a logP [40] of -0.06.
Compound `CS(=O)CCn1ccnc1[N+](=O)[O-]` (stereo unspecified) has a logP [41] of -1.22.
For `CC1(C(N)=O)CCC=[N+]1[O-]` (stereo unspecified), the logD [8] was -1.8.
Compound `COC(=O)c1ccoc1` has a logP [30] of 1.28.
Work on `Cc1ccc([N+](=O)[O-])cc1` yielded a logP [21] of 2.4.
For `ClC1=CC(Cl)C(Cl)C(Cl)C1` (stereo unspecified), the logP [33] was 3.52.
For `O=Cc1ccncc1`, the logP [4] was 0.23.
With `COc1cc(Cl)c(Cl)c(Cl)c1O` the logP [27] was 3.72.
In the case of `CCCCCBr`, the logP [16] is reported as 3.32.
With `Clc1cc(Cl)c(Cl)nc1Cl` the logP [42] was 3.32.
`O=C(Cn1ccnc1[N+](=O)[O-])NCC(O)CO` (stereo unspecified) showed a logP [41] of -1.85.
For `Clc1ccc(Cl)nc1`, the logP [42] was 2.4.
`Clc1ccc2[nH]nnc2c1` gave a logP [28] of 2.17.
`CCCCCCCCC(C)=O` showed a logP [38] of 3.78.
In the case of `Clc1ccc(Br)cc1`, the logP [11] is reported as 3.83.
In the case of `COc1ccccc1`, the logP [37] is reported as 2.15.
`CCC(C)O` (stereo unspecified) showed a logP [43] of 0.81.
`c1ccc(-c2nccnn2)cc1` gave a logP [23] of 1.71.
With `N#Cc1ccc([N+](=O)[O-])n1CCO` the logP [34] was 0.6.
`Nc1ncnc2[nH]cnc12` gave a logD [29] of -0.05.
`CCCC(C)O` (stereo unspecified) showed a logP [43] of 1.34.
With `CCOC(C)=O` the logP [19] was 0.53.
Work on `O=C1CCCO1` yielded a logP [40] of -0.31.
